Publication PMC11590367, “Characterization of novel small molecule inhibitors of estrogen receptor-activation function 2 (ER-AF2)” (Breast Cancer Research : BCR, 2024)
“Also recorded” adds a separate entry of the source.

What was measured:
[1] = test system: ER target genes (cyclinD1, CDC2, E2F, PR, pS2) in TamR3 cells; experiment: Real-time PCR of ER target genes, TamR3; type: cell-based; conditions: 72 h
Description: (§1) Total RNA was extracted using TRIzol, 72 h post-treatment. cDNA synthesis was conducted using the Maxima First Strand cDNA Synthesis Kit for RT-qPCR (Thermo K1641) according to the manufacturer’s protocol. RT-PCR was conducted on the QuantStudio 7 Pro instrument and expression fold change was calculated using 2−ΔΔCt method normalized to 18s.

[2] = target: T1, ER (ERE-luc) in PC3 cells (Homo sapiens, UniProt P03372); experiment: Nuclear receptor luciferase transcriptional assay, ER; type: cell-based; conditions: 1 or 5 µM, 1 nM E2, PC3 cells
T1 construct: expressed in transfected cells; host or cells: PC3 cells
T1 sequence (P03372 whole entry): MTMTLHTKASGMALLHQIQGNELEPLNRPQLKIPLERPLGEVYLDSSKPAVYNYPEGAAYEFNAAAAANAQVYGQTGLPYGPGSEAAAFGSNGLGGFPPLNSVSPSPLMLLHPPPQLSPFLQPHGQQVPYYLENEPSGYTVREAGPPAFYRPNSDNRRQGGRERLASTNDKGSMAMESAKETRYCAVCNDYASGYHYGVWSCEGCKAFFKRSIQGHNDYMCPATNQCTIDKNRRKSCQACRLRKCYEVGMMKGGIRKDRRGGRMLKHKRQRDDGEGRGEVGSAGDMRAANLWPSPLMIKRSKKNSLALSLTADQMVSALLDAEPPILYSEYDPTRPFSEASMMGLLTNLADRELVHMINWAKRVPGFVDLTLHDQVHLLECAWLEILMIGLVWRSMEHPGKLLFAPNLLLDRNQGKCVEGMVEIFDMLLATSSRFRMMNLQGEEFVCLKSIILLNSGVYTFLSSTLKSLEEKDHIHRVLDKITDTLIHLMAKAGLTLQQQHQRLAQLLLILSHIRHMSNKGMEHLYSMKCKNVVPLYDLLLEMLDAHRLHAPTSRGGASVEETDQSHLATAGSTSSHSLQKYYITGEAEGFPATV
Description: (§2) PC3 cells (androgen receptor (AR)-, glucocorticoid receptor (GR)[…], progesterone receptor (PR)-, ER-) were starved for 72 h then seeded into a 96-well plate at a density of 5,000 cells/well. 24 h later, cells were transfected with either ER, AR, GR, or PR and a luciferase plasmid (ERE-luc for ER and ARR3tk-luc for AR, GR, and PR). 24 h post-transfection, cells were simultaneously stimulated with 1 nM E2 for ER, 0.1 nM R1881 for AR, 1 nM Dexamethasone for GR, or 1 nM Levonorgestrel for PR, and treated with 1 or 5 µM of VPC-260724 24 h post-treatment, cells were lysed with 50 µl of passive lysis buffer (Promega #E1910). 20 µl of lysate was transferred to a white flat-bottom 96-well plate (Corning Life Sciences Cat#3912). Luminescence readings were obtained using the TECAN M200 Pro plate reader following the addition of 50 µl of luciferase reagent (Promega Luciferase Assay System E1500).

[3] = target: ER-D538G - SRC3 interaction (Homo sapiens, UniProt P03372, D538G); experiment: Proximity ligation assay, ER-D538G mutant; type: cell-based; conditions: PLA, 10 µM
ER-D538G - SRC3 interaction, sequence (P03372 whole entry D538G): as the sequence (P03372 whole entry) above, with D538G counted along it
Description: (§3) MCF7 or TamR3 cells were starved for 72 h and then seeded onto PEI coated coverslips in a 6-well plate at 1 × 10^5 cells/well. For the E2 experiments, the cells were treated the following day with 10 µM of ER-AF2 inhibitor for 24 h, with E2 added 1 h before fixation. […] 24 h post-treatment, cells were fixed in methanol:acetone (3:1). Coverslips were then permeabilized with 0.05% Triton X-100 for 5 minutes at room temperature. The Duolink In Situ Detection Reagents Red kit from Millipore Sigma (DUO92008) was used for blocking and PLA according to the manufacturer’s protocol. Primary antibodies, Estrogen Receptor alpha antibody (F-10) (sc-8002) and Rabbit anti-SRC3 antibody (A300-348 A), were diluted 1:50 in antibody diluent.

TamR3 spheroids = experiment: Viability assay in 3D spheroids, TamR3; type: cell-based; conditions: 1:2 dilution from 50 µM, 1 nM E2; read-out: IC50 on growth (area) of TamR3 spheroids
[4] = target: T2, PR (ARR3tk-luc) in PC3 cells (Homo sapiens, UniProt P06401); experiment: Nuclear receptor luciferase transcriptional assay, PR; type: cell-based; conditions: 1 or 5 µM, 1 nM Levonorgestrel
T2 construct: expressed in transfected cells; host or cells: PC3 cells
T2 sequence (P06401 whole entry): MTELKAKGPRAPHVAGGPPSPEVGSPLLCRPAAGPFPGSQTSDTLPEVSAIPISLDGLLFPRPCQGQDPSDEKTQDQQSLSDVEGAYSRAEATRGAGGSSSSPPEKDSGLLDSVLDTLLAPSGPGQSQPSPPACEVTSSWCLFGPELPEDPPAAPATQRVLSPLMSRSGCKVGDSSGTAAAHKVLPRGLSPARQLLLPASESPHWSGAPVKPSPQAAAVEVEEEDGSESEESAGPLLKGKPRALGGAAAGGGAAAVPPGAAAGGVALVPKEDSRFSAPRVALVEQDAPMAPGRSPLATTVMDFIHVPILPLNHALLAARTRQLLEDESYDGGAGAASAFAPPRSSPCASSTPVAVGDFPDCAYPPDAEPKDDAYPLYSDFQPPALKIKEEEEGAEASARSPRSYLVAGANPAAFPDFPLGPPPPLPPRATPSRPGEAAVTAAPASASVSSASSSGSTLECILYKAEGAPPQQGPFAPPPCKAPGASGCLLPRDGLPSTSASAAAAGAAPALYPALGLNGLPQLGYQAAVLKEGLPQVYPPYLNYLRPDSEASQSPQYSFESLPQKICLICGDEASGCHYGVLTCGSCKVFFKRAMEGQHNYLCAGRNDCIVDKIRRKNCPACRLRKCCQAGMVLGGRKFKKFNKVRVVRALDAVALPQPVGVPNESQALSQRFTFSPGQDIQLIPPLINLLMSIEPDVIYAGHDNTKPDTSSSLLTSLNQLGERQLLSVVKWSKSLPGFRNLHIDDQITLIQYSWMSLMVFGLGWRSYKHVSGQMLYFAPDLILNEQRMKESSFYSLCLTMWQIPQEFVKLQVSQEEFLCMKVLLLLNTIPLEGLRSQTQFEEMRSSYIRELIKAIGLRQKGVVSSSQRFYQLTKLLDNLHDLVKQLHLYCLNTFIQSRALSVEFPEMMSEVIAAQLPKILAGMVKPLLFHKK
Description: as §2

[5] = target: T3, AR (ARR3tk-luc) in PC3 cells (Homo sapiens, UniProt P10275); experiment: Nuclear receptor luciferase transcriptional assay, AR; type: cell-based; conditions: 1 or 5 µM, 0.1 nM R1881, PC3 cells
T3 construct: expressed in transfected cells; host or cells: PC3 cells
T3 sequence (P10275 whole entry): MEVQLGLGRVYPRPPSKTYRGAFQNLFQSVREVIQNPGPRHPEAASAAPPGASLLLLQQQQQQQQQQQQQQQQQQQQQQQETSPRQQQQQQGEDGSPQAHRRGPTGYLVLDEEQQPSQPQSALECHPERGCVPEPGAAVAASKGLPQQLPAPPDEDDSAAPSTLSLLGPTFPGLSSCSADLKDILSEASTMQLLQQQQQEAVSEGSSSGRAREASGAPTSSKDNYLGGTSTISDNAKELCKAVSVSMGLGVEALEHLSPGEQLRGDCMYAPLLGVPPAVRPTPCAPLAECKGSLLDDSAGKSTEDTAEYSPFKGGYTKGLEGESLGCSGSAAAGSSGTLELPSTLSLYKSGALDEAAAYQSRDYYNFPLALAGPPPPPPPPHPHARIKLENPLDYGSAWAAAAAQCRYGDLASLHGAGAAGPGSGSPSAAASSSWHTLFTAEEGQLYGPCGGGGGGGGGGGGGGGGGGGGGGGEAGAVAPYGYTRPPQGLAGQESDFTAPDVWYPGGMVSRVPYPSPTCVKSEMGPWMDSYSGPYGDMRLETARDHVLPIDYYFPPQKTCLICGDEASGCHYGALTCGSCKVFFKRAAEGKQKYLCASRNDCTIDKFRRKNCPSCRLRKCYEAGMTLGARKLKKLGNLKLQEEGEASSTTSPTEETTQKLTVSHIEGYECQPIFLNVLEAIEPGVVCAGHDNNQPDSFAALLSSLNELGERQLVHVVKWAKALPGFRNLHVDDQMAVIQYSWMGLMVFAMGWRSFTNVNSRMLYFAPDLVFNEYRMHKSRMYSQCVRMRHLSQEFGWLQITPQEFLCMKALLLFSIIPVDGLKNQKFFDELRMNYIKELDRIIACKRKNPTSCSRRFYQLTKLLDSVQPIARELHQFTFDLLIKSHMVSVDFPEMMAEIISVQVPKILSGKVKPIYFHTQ
Description: as §2

[6] = target: T4, ER-SRC3 interaction in MCF7 cells (Homo sapiens, UniProt P03372); experiment: Proximity ligation assay (PLA), MCF7; type: cell-based; conditions: 10 µM, 48 h, E2 stimulation
T4 construct: endogenous in cells; host or cells: MCF7 or TamR3 cells
T4 sequence (P03372 whole entry): as the sequence (P03372 whole entry) above
Description: as §3, with “cells/well.” for “cells/well. For the E2 experiments, the cells were treated the following day with 10 µM of ER-AF2 inhibitor for 24 h, with E2 added 1 h before fixation.”, “[…] […]” for “24 h post-treatment, cells were fixed in methanol:acetone (3:1).”

[7] = target: T5, full length ERɑ protein, estrogen binding site (EBS) (Homo sapiens, UniProt P03372); experiment: E2-displacement assay (PolarScreen fluorescence polarization); conditions: fluorescence polarization, 1, 10 and 50 µM
T5 construct: full length ERɑ protein was incubated with Fluormone ES2 Green; purchased ThermoFisher A15882
T5 sequence (P03372 whole entry): as above
Description: The E2 displacement assay was performed using the PolarScreen Estrogen Receptor Alpha Competitor Assay, Green (ThermoFisher A15882) according to the manufacturer’s protocol. In brief, full length ERɑ protein was incubated with Fluormone ES2 Green (Fluormone Tracer) in the ES2 screening buffer in a black bottom 384-well plate (Corning 3573) in the presence of either 1, 10, or 50 µM of test compounds. The final concentrations in the assay were 2% DMSO (consistent with the MST assay), 4.5 nM fluormone, and 40 nM ERɑ protein. 20 µl of the mixture were added to each well, with triplicates performed for each condition. The plate was incubated in the dark at room temperature for 4 h before fluorescence polarization was measured using a Synergy Neo2 plate reader (BioTek).

MDA-MB-231 cells = experiment: PrestoBlue viability assay, MDA-MB-231; type: cell-based; conditions: dose response 50 to 0.01 µM, 1 nM E2
Description: T47D, MCF7, TamR3, and MDA-MB-231 cells were starved for 72 h and then seeded into black clear-bottom 96-well plates (Corning Life Sciences Cat#3904) at 20,000 cells/well (T47D, MCF7, TamR3) or 5,000 cells/well (MDA-MB-231). […] 20 µl of PrestoBlue Cell Viability Reagent (Thermo Fisher A13262) was added to each well and incubated at 37 °C for 1 h. Fluorescence intensity was measured using the TECAN F500 plate reader with emission and excitation wavelengths of […], respectively.

[8] = test system: ER target genes (cyclinD1, CDC2, E2F, PR, pS2) in MCF7 cells; experiment: Real-time PCR of ER target genes, MCF7; type: cell-based; conditions: 10 µM, 72 h, E2 stimulation
Description: as §1

ER D538G/F404L mutant = ER D538G/F404L mutant (Homo sapiens, UniProt P03372, D538G/F404L); experiment: Transcriptional activity of fulvestrant resistant mutant ER; type: cell-based; conditions: compared to DMSO
ER D538G/F404L mutant, sequence (P03372 whole entry F404L/D538G): as the sequence (P03372 whole entry) above, with F404L, D538G counted along it

Cc1cccn2c(CNCc3cccc(N(C)C)n3)cnc12 [VPC-260724]
ER target gene expression in TamR3, combined with tamoxifen ([1]; 10 µM with 1 µM Tamoxifen): markedly reduced
mRNA levels of ER target genes, TamR3 ([1]; 10 µM, E2 stimulation): significant decrease
Transcriptional activity of ER [2]: dose-dependent inhibition
Interaction between SRC3 and ER-D538G [3]: inhibited the interaction
IC50 (TamR3 spheroids): 27 ± 3.2 µM
Transcriptional activity of PR [4]: did not significantly impact
Transcriptional activity of AR [5]: did not significantly impact
ER-SRC3 interactions (PLA signals per nuclei), MCF7 [6]: significantly reduced ER-SRC3 interactions
Displacement of fluormone (fluorescent E2) from EBS [7]: did not displace the fluormone at any of the tested concentrations
Effect on viability of ER-negative MDA-MB-231 cells (MDA-MB-231 cells): minimal impact; also recorded: did not affect the viability
mRNA levels of ER target genes, MCF7 [8]: significant decrease
Transcriptional activity of mutant ER D538G/F404L (ER D538G/F404L mutant): significantly reduced the transcriptional activity
